Assay results: patent US7754795B2, “Coating composition” (3M Innovative Properties Company, priority 2006, dated 2010)
Marks after values point to notes of the source that are not given here.

Assay: Determination of bio-accumulation: urinary clearance pharmacokinetic study in rats, with observation for toxicity and gross necropsy
Format: in vivo, male Sprague Dawley rats
Details: rat, oral gavage
Description: The perfluorinated and partially fluorinated carboxylates were evaluated for urinary clearance using a pharmacokinetic study in rats. The goal was to measure the total amount of parent compound eliminated via urinary output and estimate the rate of elimination. The study was approved by the IACUC (Institutional Animal Care and Use Committees) and was performed in 3M Company's AAALAC (Association for Assessment and Accreditation of Laboratory Animal Care)-accredited facility.
The study utilized male Sprague Dawley rats, 6 to 8 weeks of age, and approximately 200 to 250 g body weight at study onset. The test compounds of table 2 were administered at a dose of 73 micro Moles per kg body weight in rats (N=3 animals per tested compound). All test compounds were prepared in sterile deionized water and given to rats via oral gavage. After test compounds administration, the rats were housed individually in metabolism cages for urine collection: 0 to 6 hours, 6 to 24 hours, 24 to 48 hours and […]. Animals were observed throughout the study for clinical signs of toxicity. Gross necropsy was performed at the termination of each study (96 hours post-dose) with sera and liver samples being retained from each animal.
The concentration of the parent compound or metabolites thereof were quantitatively measured via fluorine NMR on each urine sample for each animal at each time point based on internally added standards.

[1] = 73 micro Moles per kg, no parent compound observed in the urine

SMILES	T½ (73 micro Moles per kg body weight, parent compound in urine by fluorine NMR, exponential least squares curve fitting)	% Recovery (96 h), based on elimination of the major metabolite C3F7—O—CHFCOO− [1]	T½ (h), based on elimination of the major metabolite C3F7—O—CHFCOO− [1]
N.O=C(O)C(F)(F)OC(F)(F)C(F)(F)C(F)(F)OC(F)(F)F [Compound 1, CF3—O—(CF2)3—O—CF2—COONH4]	10 h	–	–
N.O=C(O)COC(F)(F)C(F)OC(F)(F)C(F)(F)C(F)(F)F (stereo not drawn) [Compound 16, C3F7—O—CFH—CF2—O—CH2—COONH4]	–	65* %	13* h
